Measurements as given in US20210038515A1 (Azurity Pharmaceuticals, Inc., priority 2014, published 2021).

Columns and labels:
Clostridium difficile = assay: Agar dilution MIC of vancomycin preparations (Sigma, Cutis), diluent, Na benzoate and Na citrate; format: cell-based; conditions: tested separately at concentrations exceeding those present in the diluent
Procedure: Introduction: The purpose of the study was to compare the MICs obtained with the formulation of vancomycin HCL of the invention (Cutis) to formulations obtained using a vancomycin HCL reference standard powder obtained from Sigma. The Example also involves the analysis of a solution or diluent to determine if it has antimicrobial activity at the concentrations present in the agar dilution test.
The C. difficile were tested by agar dilution according to the procedures in the Clinical and Laboratory Standards Institute. 2012. Methods for antimicrobial susceptibility testing of anaerobic bacteria; approved standard-seventh edition.
Other anaerobic organisms included clinical isolates of Bifidobacterium adolescentis and Bacteroides fragilis. Clostridium difficile ATCC 700057 was included as a quality control strain.
The C. difficile isolates were recovered from patients with CDI during the past two years and stored at −70° C. in 20% skim milk. Ribotyping was performed by another reference laboratory. The strains were taken from the freezer and subcultured at least twice to ensure purity and good growth.
On the day of testing, they were suspended in Brucella broth to the turbidity of the 0.5 McFarland standard for testing.
Stock solution of the Sigma vancomycin was prepared in water and stored at −70° C. On the day of testing, it was thawed and further diluted in water to obtain the desired range of 16-0.125 μg/ml. The Cutis vancomycin (25 mg/ml) was reconstituted on the day of testing and further diluted for a final range of 16-0.125 μg/ml in the test. The antimicrobials were added to molten Brucella agar supplemented with vitamin K and hemin to prepare the plates. Drug-free growth controls were included for testing before and after each set of plates. All testing was done in triplicate.
The organisms were pipetted into the wells of the Steers replicator head and applied to the plates with the multi-pronged replicator. The final concentration of organisms was ˜10^5 CFU/spot.
The plates were incubated in the anaerobic chamber incubator for 44 h and examined for growth.
The Cutis diluent comprises: water, about 0.12% (w/v) citric acid (anhydrous), 0.2% (w/v) sucralose, about 0.05% (w/v) artificial grape flavor, 0.1% (w/v) sodium benzoate, about 0.0002% (w/v) D&C Yellow No. 10 and about 0.000038% (w/v) FD&C Red No. 40.

[1] = orally-administered; cited from earlier work
in vitro = conditions: human, Caco-2
Procedure: Caco-2 cells are used as an in vitro model of the human intestinal epithelium and permit assessment of the intestinal permeability of potential drugs. Vancomycin is added to either the apical or basolateral side of a confluent monolayer of Caco-2 cells and permeability is measured by monitoring the appearance of the Vancomycin on the opposite side of the monolayer using LC-MS/MS. When performing a bi-directional assay, the efflux ratio (ER) is calculated from the ratio of B->A and A->B permeabilities.
The permeability measure of vancomycin in the apical to basolateral (A->B) and basolateral to apical (B->A) direction across Caco-2 cells, and to determine the efflux ratio.

[2] = system: Staphylococcus aureus ATCC 29213; assay: MIC by reference agar dilution method (CLSI M11-A8), quality control strain; format: cell-based; conditions: Fresh
Procedure: The vancomycin hydrochloride solution of the invention and the IV solution were reconstituted to a concentration of 25 mg/ml. […] The MICs were determined by the reference agar dilution method (CLSI M11-A8). All serial two-fold dilutions were prepared on the same day and added to molten agar to prepare plates.
The in vitro activity was tested for three different preparations of vancomycin freshly reconstituted, and stored at ambient and at refrigerated temperatures. The C. difficile strains were selected to represent the most frequently encountered ribotypes.
Plates were prepared by adding 1 ml of lysed sheep blood and two mls of the twofold dilutions of the vancomycin preparations to molten agar. Plates were mixed, poured and allowed to harden. Suspensions of the organisms were applied to the plates using a Steers replicating device that delivered approximately 10^5 cfu/spot. Each preparation was tested in triplicate. Plates were incubated at 37° C. for 48 h.
Plates were examined for growth.

C. difficile = assay: MIC by reference agar dilution method (CLSI M11-A8) of stored vancomycin preparations; format: cell-based, Clostridium difficile; conditions: for MIC, average of triplicate: Fresh

Compound: O=C([O-])c1ccccc1.[Na+] [Na benzoate]
- growth inhibition (Clostridium difficile): no inhibition

Compound: CN[C@H](CC(C)C)C(=O)N[C@H]1C(=O)N[C@@H](CC(N)=O)C(=O)N[C@H]2C(=O)N[C@H]3C(=O)N[C@H](C(=O)N[C@H](C(=O)O)c4cc(O)cc(O)c4-c4cc3ccc4O)[C@H](O)c3ccc(c(Cl)c3)Oc3cc2cc(c3O[C@@H]2O[C@H](CO)[C@@H](O)[C@H](O)[C@H]2O[C@H]2C[C@](C)(N)[C@H](O)[C@H](C)O2)Oc2ccc(cc2Cl)[C@H]1O [vancomycin]
- absorption [1]: cannot be absorbed
- concentrations in the colon [1]: 500 to 1000 µg/mL

Compound: O=C([O-])CC(O)(CC(=O)[O-])C(=O)[O-].[Na+].[Na+].[Na+] [Na citrate]
- growth inhibition (Clostridium difficile): no inhibition

Compound: CNC(=C[N+](=O)[O-])NCCSCc1ccc(CN(C)C)o1 [Ranitidine]
- Papp A→B (in vitro): 0.3 ×10⁻⁶ cm/s
- Papp B→A (in vitro): 1.5 ×10⁻⁶ cm/s

Compound: COCCc1ccc(OCC(O)CNC(C)C)cc1 (stereo not shown) [Metoprolol]
- Papp A→B (in vitro): 11.6 ×10⁻⁶ cm/s
- Papp B→A (in vitro): 30 ×10⁻⁶ cm/s

Compound: CN[C@H](CC(C)C)C(=O)N[C@H]1C(=O)N[C@@H](CC(N)=O)C(=O)N[C@H]2C(=O)N[C@H]3C(=O)N[C@H](C(=O)N[C@H](C(=O)O)c4cc(O)cc(O)c4-c4cc3ccc4O)[C@H](O)c3ccc(c(Cl)c3)Oc3cc2cc(c3O[C@@H]2O[C@H](CO)[C@@H](O)[C@H](O)[C@H]2O[C@H]2C[C@](C)(N)[C@H](O)[C@H](C)O2)Oc2ccc(cc2Cl)[C@H]1O.Cl [Reference standard]
- MIC, average of triplicate ([2]; ATCC 29213 SA QC (S. aureus)): 2 µg/mL
- vancomycin MIC from triplicate test, best of 3 values ([2]; ATCC 29213 SA QC): 2 µg/mL
- MIC, average of triplicate (C. difficile; ATCC 7000057 QC (C. difficile)): 1 µg/mL
- MIC, average of triplicate (C. difficile; RMA 24504, ribotype 027): 1 µg/mL
- MIC, average of triplicate (C. difficile; RMA 24510, ribotype 027): 1 µg/mL
- MIC, average of triplicate (C. difficile; RMA 24519, ribotype 027): 1 µg/mL
- MIC, average of triplicate (C. difficile; RMA 24527, ribotype 014): 1 µg/mL
- MIC, average of triplicate (C. difficile; RMA 24529, ribotype 014): 1 µg/mL
- MIC, average of triplicate (C. difficile; RMA 24541, ribotype 020): 1 µg/mL
- MIC, average of triplicate (C. difficile; RMA 24543, ribotype 020): 1 µg/mL
- MIC, average of triplicate (C. difficile; RMA 24547, ribotype 014): 1 µg/mL
- MIC, average of triplicate (C. difficile; RMA 24561, ribotype 078): 1 µg/mL
- MIC, average of triplicate (C. difficile; RMA 24567, ribotype 020): 1 µg/mL
- MIC, average of triplicate (C. difficile; RMA 24575, ribotype 078): 1 µg/mL
- MIC, average of triplicate (C. difficile; RMA 24594, ribotype 106): 4 µg/mL
- MIC, average of triplicate (C. difficile; RMA 24601, ribotype 106): 2 µg/mL
- MIC, average of triplicate (C. difficile; RMA 24605, ribotype 002): 1 µg/mL
- MIC, average of triplicate (C. difficile; RMA 24607, ribotype 106): 1 µg/mL
- MIC, average of triplicate (C. difficile; RMA 24608, ribotype 002): 1 µg/mL
- MIC, average of triplicate (C. difficile; RMA 24615, ribotype 005): 2 µg/mL
- MIC, average of triplicate (C. difficile; RMA 24628, ribotype 012): 1 µg/mL
- MIC, average of triplicate (C. difficile; RMA 24641, ribotype 001/072): 1 µg/mL
- MIC, average of triplicate (C. difficile; RMA 24643, ribotype 001/072): 1 µg/mL
- MIC, average of triplicate (C. difficile; RMA 24646, ribotype 001/072): 1 µg/mL
- MIC, average of triplicate (C. difficile; RMA 24655, ribotype 005): 2 µg/mL
- MIC, average of triplicate (C. difficile; RMA 24678, ribotype 012): 4 µg/mL
- MIC, average of triplicate (C. difficile; RMA 24683, ribotype 027): 2 µg/mL
- MIC, average of triplicate (C. difficile; RMA 24690, ribotype 027): 4 µg/mL
- Average MIC (geometric mean, all 25 strains) (C. difficile; reference standard powder stock solution stored at −70 C): 1.5 µg/mL
